Measured values published in US12441768B2, “Compositions and methods for treating endometriosis” (EndoMet Biosciences, Inc., priority 2018, dated 2025).
Where a SMILES comes first, the peptide text is derived from it.

Key:
[1] = % Viability non-Wnt responsive cells
β-catenin = target: T1, β-catenin (Homo sapiens, UniProt P35222); assay: KD50 measurement using competitive fluorescence polarization (FP) with labelled TCF4; assay type: binding; settings: fluorescence polarization, β-catenin; for Kd: read-out: β-Cat FP KD
T1 sequence (P35222 1-781): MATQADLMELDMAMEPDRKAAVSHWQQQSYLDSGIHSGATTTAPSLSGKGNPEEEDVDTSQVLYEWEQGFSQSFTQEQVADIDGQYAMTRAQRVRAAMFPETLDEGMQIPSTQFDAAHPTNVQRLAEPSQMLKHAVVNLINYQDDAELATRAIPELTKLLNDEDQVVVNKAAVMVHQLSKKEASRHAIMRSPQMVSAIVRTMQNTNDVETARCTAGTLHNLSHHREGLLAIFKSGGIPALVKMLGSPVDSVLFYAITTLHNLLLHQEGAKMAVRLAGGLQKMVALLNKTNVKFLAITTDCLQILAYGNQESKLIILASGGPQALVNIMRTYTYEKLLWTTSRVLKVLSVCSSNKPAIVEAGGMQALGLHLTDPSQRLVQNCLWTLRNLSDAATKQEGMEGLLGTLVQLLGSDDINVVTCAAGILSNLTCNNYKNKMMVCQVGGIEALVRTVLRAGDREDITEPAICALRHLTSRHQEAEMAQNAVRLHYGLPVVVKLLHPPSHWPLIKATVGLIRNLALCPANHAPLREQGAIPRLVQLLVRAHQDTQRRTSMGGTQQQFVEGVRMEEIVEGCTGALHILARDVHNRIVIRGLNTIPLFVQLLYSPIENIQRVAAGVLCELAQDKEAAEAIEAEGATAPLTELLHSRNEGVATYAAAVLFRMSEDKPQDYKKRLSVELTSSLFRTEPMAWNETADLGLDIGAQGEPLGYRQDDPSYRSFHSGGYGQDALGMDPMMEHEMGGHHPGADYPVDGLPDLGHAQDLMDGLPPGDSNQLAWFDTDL
How it was run: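 Labelled TCF4 (5 nM) mixed with 100 nM β-catenin at room temperature; inhibitor added as serial dilutions from 10 nM to 30 uM. Polarization read at excitation 470 nm/emission 520 nm; binding displacement lowers polarization. Three independent runs.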

[2] = target: Wnt-responsive promoter (TCF/LEF); assay: Wnt-dependent luciferase reporter assay; assay type: cell-based, murine
How it was run: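 Murine 3T3 fibroblasts carrying a TCF/LEF-driven luciferase reporter, stimulated with Wnt3a in the presence of increasing peptide concentrations or vehicle. Luminescence inhibition gave EC50 values in uM.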

Row | SMILES | viability [1] | β-Cat FP Hill slope (β-catenin) | Kd (β-catenin) | EC50 [2]
1 | CC[C@H](C)[C@H](NC(=O)[C@H](CC(C)C)NC(=O)[C@@H](NC(=O)[C@H](Cc1c[nH]c2ccccc12)NC(=O)[C@H](CCSC)NC(=O)[C@@H](N)CCCCN)[C@@H](C)CC)C(=O)N[C@@H](CO)C(=O)N[C@@H](Cc1ccccc1)C(=O)N[C@@H](Cc1c[nH]c2ccccc12)C(=O)NCC(=O)O [compound 122] (H-KMWILISFWG-OH) | 113% | 1.55 | < 0.4 µM | 22.5 to 30 µM
2 | CC[C@H](C)[C@H](NC(=O)[C@H](CC(C)C)NC(=O)[C@H](Cc1ccccc1)NC(=O)[C@H](Cc1c[nH]c2ccccc12)NC(C)=O)C(=O)N[C@@H](CO)C(=O)N[C@@H](Cc1ccccc1)C(=O)N[C@@H](Cc1c[nH]c2ccccc12)C(=O)NCC(=O)O [compound 220] (Ac-WFLISFWG-OH) | 93.2% | 2.99 | 0.4 to 1 µM | < 7.5 µM
3 | CC[C@H](C)[C@H](NC(=O)[C@H](CC(C)C)NC(=O)[C@H](Cc1c[nH]c2ccccc12)NC(=O)[C@H](Cc1c[nH]c2ccccc12)NC(=O)[C@H](CCSC)NC(=O)[C@H](CCCNC(=N)N)NC(=O)[C@H](CO)NC(=O)[C@@H](N)CCSC)C(=O)N[C@@H](CO)C(=O)N[C@@H](Cc1ccccc1)C(=O)N[C@@H](Cc1c[nH]c2ccccc12)C(N)=O [compound 80] (H-MSRMWWLISFW-NH2) | 101% |  | > 30 µM | > 30 µM
4 | CC[C@H](C)[C@H](NC(=O)[C@H](CC(C)C)NC(=O)[C@H](Cc1ccccc1)NC(=O)[C@H](Cc1c[nH]c2ccccc12)NC(=O)[C@H](CCCCN)NC(=O)[C@H](CCCNC(=N)N)NC(=O)[C@H](CO)NC(=O)[C@@H](N)CCCCN)C(=O)N[C@@H](CO)C(=O)N[C@@H](Cc1ccccc1)C(=O)N[C@@H](Cc1c[nH]c2ccccc12)C(N)=O [compound 93] (H-KSRKWFLISFW-NH2) | 94% |  | > 30 µM | > 30 µM
5 | CC[C@H](C)[C@@H]1NC(=O)[C@H](CC(C)C)NC(=O)[C@H](CC2CCCCC2)NC(=O)[C@H](Cc2c[nH]c3ccccc23)NC(=O)[C@@H](N)CCCCNC(=O)C[C@@H](C(=O)O)NC(=O)[C@H](Cc2c[nH]c3ccccc23)NC(=O)[C@H](C)NC(=O)[C@H](CO)NC1=O [compound 203] (HELM PEPTIDE1{K.W.[Cha].L.I.S.A.W.D}$PEPTIDE1,PEPTIDE1,1:R3-9:R3$$$V2.0) | 98% |  | > 30 µM | 7.5 to 15 µM
6 | CC[C@H](C)[C@H](NC(=O)[C@H](CC(C)C)NC(=O)[C@H](Cc1ccccc1)NC(=O)[C@H](Cc1c[nH]c2ccccc12)NC(=O)[C@@H](NC(=O)[C@H](CCCNC(=N)N)NC(=O)[C@H](CO)NC(=O)[C@@H](N)CCSC)[C@@H](C)O)C(=O)N[C@@H](CO)C(=O)N[C@@H](Cc1ccccc1)C(=O)N[C@@H](Cc1c[nH]c2ccccc12)C(=O)NCC(=O)O [compound 48] (H-MSRTWFLISFWG-OH) | 101% |  | > 30 µM | 7.5 to 15 µM
7 | CC[C@H](C)[C@H](NC(=O)[C@H](CC(C)C)NC(=O)[C@H](Cc1ccccc1)NC(=O)[C@H](Cc1c[nH]c2ccccc12)NC(=O)[C@@H](N)CCSC)C(=O)N[C@@H](CO)C(=O)N[C@@H](Cc1ccccc1)C(=O)N[C@@H](Cc1c[nH]c2ccccc12)C(=O)N[C@@H](CCCNC(=N)N)C(=O)NCC(=O)O [compound 49] (H-MWFLISFWRG-OH) | 103% |  | > 30 µM | < 7.5 µM
8 | CSCC[C@H](NC(=O)[C@H](CCCNC(=N)N)NC(=O)[C@H](CO)NC(=O)[C@@H](N)CCSC)C(=O)N[C@@H](Cc1c[nH]c2ccccc12)C(=O)N[C@@H](Cc1ccccc1)C(=O)N[C@@H](CC(C)C)C(=O)N[C@H](C(=O)N[C@@H](CO)C(=O)N[C@@H](Cc1ccccc1)C(=O)N[C@@H](Cc1c[nH]c2ccccc12)C(=O)NCC(=O)O)[C@@H](C)O [compound 62] (H-MSRMWFLTSFWG-OH) | 104% |  | > 30 µM | > 30 µM
9 | CC[C@H](C)[C@@H]1NC(=O)[C@H](CC(C)C)NC(=O)[C@H]([C@@H](C)CC)NC(=O)[C@H](Cc2c[nH]c3ccccc23)NC(=O)[C@@H](N)CCCCNC(=O)C[C@@H](C(=O)O)NC(=O)[C@H](Cc2c[nH]c3ccccc23)NC(=O)[C@H](Cc2ccccc2)NC(=O)[C@H](CS)NC1=O [compound 120] (HELM PEPTIDE1{K.W.I.L.I.C.F.W.D}$PEPTIDE1,PEPTIDE1,1:R3-9:R3$$$V2.0) | 123% |  | > 30 µM | < 7.5 µM
10 | CC[C@H](C)[C@H](NC(=O)[C@H](CC(C)C)NC(=O)[C@@H](NC(=O)[C@H](Cc1c[nH]c2ccccc12)NC(=O)[C@H](CCSC)NC(C)=O)[C@@H](C)CC)C(=O)N[C@@H](CO)C(=O)N[C@@H](Cc1ccccc1)C(=O)N[C@@H](Cc1c[nH]c2ccccc12)C(=O)NCC(=O)O [compound 165] (Ac-MWILISFWG-OH) | 102% | 2.99 | < 0.4 µM | < 7.5 µM
11 | CC[C@H](C)[C@H](NC(=O)[C@@H]1CCC(=O)NCCCC[C@H](N)C(=O)N[C@@H](Cc2c[nH]c3ccccc23)C(=O)N[C@@H](Cc2ccccc2)C(=O)N1)C(=O)N[C@@H](CO)C(=O)N[C@@H](Cc1ccccc1)C(=O)N[C@@H](Cc1c[nH]c2ccccc12)C(=O)NCC(=O)O [compound 208] (HELM PEPTIDE1{K.W.F.E.I.S.F.W.G}$PEPTIDE1,PEPTIDE1,1:R3-4:R3$$$V2.0) | 93.4% | 0.69 | 1 to 10 µM | 7.5 to 15 µM
12 | CC[C@H](C)[C@@H]1NC(=O)[C@H](CC(C)C)NC(=O)[C@H](Cc2ccccc2)NC(=O)[C@H](Cc2c[nH]c3ccccc23)NC(=O)[C@H](CCSC)NC(=O)CCCCCNC(=O)C[C@@H](C(=O)O)NC(=O)[C@H](Cc2c[nH]c3ccccc23)NC(=O)[C@H](Cc2ccccc2)NC(=O)[C@H](CS)NC1=O [compound 189] (HELM PEPTIDE1{[O=C(CCCCCN[*:1])[*:2]].M.W.F.L.I.C.F.W.D}$PEPTIDE1,PEPTIDE1,1:R1-10:R3$$$V2.0) | 99.5% | 1.69 | 0.4 to 1 µM | < 7.5 µM
13 | CC[C@H](C)[C@H](NC(=O)[C@H](CC(C)C)NC(=O)[C@H](Cc1ccccc1)NC(=O)[C@H](Cc1c[nH]c2ccccc12)NC(=O)[C@H](CCSC)NC(=O)[C@H](CCCNC(=N)N)NC(=O)CNC(=O)[C@@H](N)CCSC)C(=O)N[C@@H](CO)C(=O)N[C@@H](Cc1ccccc1)C(=O)N[C@@H](Cc1c[nH]c2ccccc12)C(=O)NCC(=O)O [compound 67] (H-MGRMWFLISFWG-OH) | 101% | 0.99 | 1 to 10 µM | < 7.5 µM
14 | CC[C@H](C)[C@H](NC(=O)[C@H](CC(C)C)NC(=O)[C@H](Cc1ccccc1)NC(=O)[C@H](Cc1c[nH]c2ccccc12)NC(C)=O)C(=O)N[C@@H](CS)C(=O)N[C@@H](Cc1ccccc1)C(=O)N[C@@H](Cc1c[nH]c2ccccc12)C(=O)NCC(=O)O [compound 194] (Ac-WFLICFWG-OH) | 106% | 3 | 0.4 to 1 µM | < 7.5 µM
15 | CC[C@H](C)[C@H](NC(=O)[C@H](CC(C)C)NC(=O)[C@@H](NC(=O)[C@H](Cc1c[nH]c2ccccc12)NC(=O)[C@H](CCSC)NC(=O)[C@@H](N)CCCNC(=N)N)[C@@H](C)CC)C(=O)N[C@@H](CO)C(=O)N[C@@H](Cc1ccccc1)C(=O)N[C@@H](Cc1c[nH]c2ccccc12)C(=O)NCC(=O)O [compound 124] (H-RMWILISFWG-OH) | 102% |  | > 30 µM | 7.5 to 15 µM
16 | CC[C@H](C)[C@H](NC(=O)[C@H](CC(C)C)NC(=O)[C@H](Cc1ccccc1)NC(=O)[C@H](Cc1c[nH]c2ccccc12)NC(=O)[C@@H](N)CCSC)C(=O)N[C@@H](CO)C(=O)N[C@@H](Cc1ccccc1)C(=O)N[C@@H](Cc1c[nH]c2ccccc12)C(=O)N[C@@H](CCC(=O)O)C(=O)NCC(=O)O [compound 47] (H-MWFLISFWEG-OH) | 103% | 2.29 | 0.4 to 1 µM | < 7.5 µM
17 | CC[C@H](C)[C@H](NC(=O)[C@H](CC(C)C)NC(=O)C(C)(Cc1ccccc1)NC(=O)[C@H](Cc1c[nH]c2ccccc12)NC(=O)[C@@H](N)CCSC)C(=O)N[C@@H](CS)C(=O)N[C@@H](Cc1ccccc1)C(=O)N[C@@H](Cc1c[nH]c2ccccc12)C(=O)NCC(=O)O (stereo partly drawn) [compound 131] (HELM PEPTIDE1{M.W.[CC(Cc1ccccc1)(N[*:1])C(=O)[*:2]].L.I.C.F.W.G}$$$$V2.0) | 93.1% | 1.27 | < 0.4 µM | 7.5 to 15 µM
